Data on one compound can be found in PMC3388080 (PLoS ONE, 2012).

This assay has as its system TNF-alpha (h). Description: CEREP radioligand binding. The settings on record: % of control specific binding. The arrangement: species or system human. The procedure: SB-334867 was evaluated in a selectivity screen performed at CEREP (Paris, France). The screen consisted of binding assays on a panel of 79 target receptors. The specific binding (SB) of a radioligand to each target receptor was defined as the difference between the total binding and the nonspecific binding determined in the presence of a cold competitor in excess. […] Details on the CEREP screen are available from www.cerep.fr.

Consider `Cc1nc2ccc(NC(=O)Nc3ccnc4cccnc34)cc2o1.Cl` [SB-334867, 1-(2-methylbenzoxazol-6-yl)-3-[1], [5]naphthyridin-4-yl-urea hydrochloride], for which the “% Control (10 µM) Mean SB” value is given as 96.8%.
